# From US5145848A, “Amino anthracenediones-bis platinum complexes, useful as antitumoral agents” (priority 1987, dated 1992)
# Assays:
# [1] = test system: leukaemia P388; experiment: Antitumour activity against leukaemia P388 in rats CD2 F1, i.p. (Table I); assay type: in vivo; details: for MST / T/C % / TOX: day 1; for LTS (60 days): day 1, 60 days
# Experimental: 10^5 leukaemic cells were injected at day 0 and the compounds were administered intraperitoneally the day after, defined as day 1 of the experiment.
# [2] = test system: leukaemia L1210/CDDP; experiment: Effect on leukaemia L1210/CDDP (cis-platinum resistant) in rats CD2 F1, i.p. (Table II); assay type: in vivo, rats CD2 Fl; details: for MST / T/C %: day 1; for LTS (60 days): day 1, 60 days
# Experimental: ^a) 10^5 cell/rat injected i.p. at day
# Compounds were administered at day "1
# [3] = test system: L1210/CDDP cells; experiment: In vitro growth inhibition of murine leukaemia L1210/CDDP (Table III); assay type: cell-based
# Experimental: (§1) Effect of BBR 1939 on in vitro growth^b) of murine leukaemia^a)
# (§2) ^a) 10^5 cells were plated in triplicate at time
# (§3) ^b) means used: RPMI 1640 + 10 Y FCS (inactivated in warm) +
# (§4) 2mercaptoethanol 10^-3 M
# (§5) ^c) IC %: inhibition percentage of cellular growth (treated animals
# [4] = test system: K562 cells; experiment: In vitro growth inhibition of human erythroleukosis K562 (Table III); assay type: cell-based
# Experimental: as §1
# L1210/CDDP and human erythroleukosis
# K562 b - Comparison with CDDP:
# as §2, §3, §4, §5
# [5] = test system: human tumors; details: cited from earlier work
compound,measurement,setting,value
O=C1c2c(O)ccc(O)c2C(=O)c2c(NCCNCCO)ccc(NCCNCCO)c21 [Mitoxanthrone],MST,[1]; 3.75 mg/Kg,32.5 days
same,T/C %,[1]; 3.75 mg/Kg,295%
same,TOX,[1]; 3.75 mg/Kg,0/7
same,LTS (60 days),[1]; 3.75 mg/Kg,2/7
same,MST,[1]; 11.1 mg/Kg,36.5 days
same,T/C %,[1]; 11.1 mg/Kg,331%
same,TOX,[1]; 11.1 mg/Kg,0/7
same,LTS (60 days),[1]; 11.1 mg/Kg,1/7
same,MST,[1]; 18.4 mg/Kg,42.5 days
same,T/C %,[1]; 18.4 mg/Kg,386%
same,TOX,[1]; 18.4 mg/Kg,0/7
same,LTS (60 days),[1]; 18.4 mg/Kg,1/7
same,MST,[1]; 25.8 mg/Kg,40.5 days
same,T/C %,[1]; 25.8 mg/Kg,368%
same,TOX,[1]; 25.8 mg/Kg,1/7
same,LTS (60 days),[1]; 25.8 mg/Kg,0/7
"N.N.[Cl][Pt][Cl] [cis-platinum, cis-diaminodichloroplatinum II]",MST,[1]; 6 mg/Kg,22.5 days
same,T/C %,[1]; 6 mg/Kg,198%
same,LTS (60 days),[1]; 6 mg/Kg,0/7
same,MST,[1]; 10 mg/Kg,18.8 days
same,T/C %,[1]; 10 mg/Kg,162%
same,LTS (60 days),[1]; 10 mg/Kg,0/7
same,MST,[1]; 14 mg/Kg,11.5 days
same,T/C %,[1]; 14 mg/Kg,99%
same,LTS (60 days),[1]; 14 mg/Kg,0/7
same,MST,[2]; 5 mg/Kg,11.1 days
same,T/C %,[2]; 5 mg/Kg,97%
same,LTS (60 days),[2]; 5 mg/Kg,0/10
same,MST,[2]; 7.5 mg/Kg,11.6 days
same,T/C %,[2]; 7.5 mg/Kg,101%
same,LTS (60 days),[2]; 7.5 mg/Kg,0/10
same,MST,[2]; 12.5 mg/Kg,9.3 days
same,T/C %,[2]; 12.5 mg/Kg,103%
same,LTS (60 days),[2]; 12.5 mg/Kg,0/10
same,IC % (inhibition percentage of cellular growth),"[3]; 0.5 ug/ml, after 24 hours",20%
same,IC % (inhibition percentage of cellular growth),"[3]; 0.5 ug/ml, after 48 hours",8%
same,IC % (inhibition percentage of cellular growth),"[3]; 0.5 ug/ml, after 72 hours",37%
same,IC % (inhibition percentage of cellular growth),"[3]; 1 ug/ml, after 24 hours",30%
same,IC % (inhibition percentage of cellular growth),"[3]; 1 ug/ml, after 48 hours",18%
same,IC % (inhibition percentage of cellular growth),"[3]; 1 ug/ml, after 72 hours",44%
same,IC % (inhibition percentage of cellular growth),"[3]; 5 ug/ml, after 24 hours",54%
same,IC % (inhibition percentage of cellular growth),"[3]; 5 ug/ml, after 48 hours",87%
same,IC % (inhibition percentage of cellular growth),"[3]; 5 ug/ml, after 72 hours",84%
same,IC % (inhibition percentage of cellular growth),"[3]; 10 ug/ml, after 24 hours",78%
same,IC % (inhibition percentage of cellular growth),"[3]; 10 ug/ml, after 48 hours",92%
same,IC % (inhibition percentage of cellular growth),"[3]; 10 ug/ml, after 72 hours",86%
same,IC % (inhibition percentage of cellular growth),"[3]; 50 ug/ml, after 24 hours",80%
same,IC % (inhibition percentage of cellular growth),"[3]; 50 ug/ml, after 48 hours",99%
same,IC % (inhibition percentage of cellular growth),"[3]; 50 ug/ml, after 72 hours",100%
same,IC % (inhibition percentage of cellular growth),"[4]; 1 ug/ml, after 24 hours",22%
same,IC % (inhibition percentage of cellular growth),"[4]; 1 ug/ml, after 48 hours",52%
same,IC % (inhibition percentage of cellular growth),"[4]; 1 ug/ml, after 72 hours",54%
same,IC % (inhibition percentage of cellular growth),"[4]; 5 ug/ml, after 24 hours",28%
same,IC % (inhibition percentage of cellular growth),"[4]; 5 ug/ml, after 48 hours",71%
same,IC % (inhibition percentage of cellular growth),"[4]; 5 ug/ml, after 72 hours",82%
same,IC % (inhibition percentage of cellular growth),"[4]; 10 ug/ml, after 24 hours",35%
same,IC % (inhibition percentage of cellular growth),"[4]; 10 ug/ml, after 48 hours",76%
same,IC % (inhibition percentage of cellular growth),"[4]; 10 ug/ml, after 72 hours",87%
same,IC % (inhibition percentage of cellular growth),"[4]; 50 ug/ml, after 24 hours",52%
same,IC % (inhibition percentage of cellular growth),"[4]; 50 ug/ml, after 48 hours",85%
same,IC % (inhibition percentage of cellular growth),"[4]; 50 ug/ml, after 72 hours",91%
same,IC % (inhibition percentage of cellular growth),"[4]; 100 ug/ml, after 24 hours",56%
same,IC % (inhibition percentage of cellular growth),"[4]; 100 ug/ml, after 48 hours",85%
same,IC % (inhibition percentage of cellular growth),"[4]; 100 ug/ml, after 72 hours",91%
same,clinical efficacy,[5]; clinical observation,Clinical observation confirms the efficacy of the compound in a number of human tumors
same,side effects,[5]; clinical,"serious gastro-intestinal, renal side effects, hematologic and neurologic complications (ototoxicity)"
